Source: patent publication US8946273B2, “S-Triazolyl alpha-mercapto acetanilides as inhibitors of HIV reverse transcriptase” (priority 2011, dated 2015)
Read-outs that look alike come from different tables or passages of the source.

Experiments:
wild type HIV-1 = experiment: microbe, parasite or virus in culture; type: cell-based, human immunodeficiency virus type 1 (HIV-1)
[1] = target: T1, wild-type HIV reverse transcriptase (Human immunodeficiency virus type 1 group M subtype B, UniProt P04585); experiment: Activity on wild type reverse transcriptase (Table 1 IC50 WT); type: biochemical
T1 construct: wild-type and four mutant HIV reverse transcriptases
Method: Using similar methods as described above, 2-[5-bromo-4-(4-cyclopropylnaphthalen-1-yl)-4H-[1,2,4]triazol-3-ylsulfanyl]-N-(2-methyl-4-sulfamoylphenyeacetamide and 2-[5-bromo-4-(4-ethylnaphthalen-1-yl)-4H-[1,2,4]triazol-3-ylsulfanyl]-N-(2-chloro-4-sulfamoylphenyl)-acetamide were synthesized, as were the N-4-carbamyl analog, 2-[5-bromo-4-(4-ethyl-naphthalen-1-yl)-4H-[1,2,4]triazol-3-ylsulfanyl]-N-(2-chloro-4-carbamoylphenyl)-acetamide and the N-4-carboxyl analog. Each of the compounds was tested against a panel of mutant HIV reverse transcriptases, including 20 of the 22 of the mutants that are found in about 2% or more of the patient samples that are resistant to the most widely used non-nucleoside HIV-RT inhibitor efavirenz ((4S)-6-chloro-4-(cyclopropylethynyl)-1,4-dihydro-4-(trifluoromethyl)-2H-3,1-benzoxazin-2-one). […] In most cases both criteria were met. […] […].
Compounds of the invention were tested against the wild-type and four mutant HIV reverse transcriptases. The results are listed in Table 1 as EC50 (nM) and IC50 (nM). In the Table, A represents <50 nM, B is between 50 and 100 nM, and C is >100 nM. ND is not determined.

[2] = target: mutant HIV reverse transcriptases (Human immunodeficiency virus type 1, UniProt P12497, Y768C, cells depend on it); type: cell-based
[3] = target: mutant HIV reverse transcriptases (Human immunodeficiency virus type 1, UniProt P12497, Y775L, cells depend on it); type: cell-based
[4] = Human immunodeficiency virus 1, Hela-JC53, read-out: EC50 WT
[5] = read-out: EC50 WT, wild-type (WT) HIV-1
[6] = read-out: IC50 WT RT, wild-type (WT) RT

Row | Compound | EC50 (wild type HIV-1; [4]) [nM] | IC50 [1] [nM] | EC50 [2] [nM] | EC50 [3] [nM] | EC50 (wild type HIV-1; [5]) [nM] | IC50 [1, 6] [nM]
1 | Cc1cc(S(N)(=O)=O)ccc1NC(=O)CSc1nnc(Br)n1-c1ccc2c3c(cccc13)CC2 [compound 38] | < 50 | < 50 | < 50 | < 50 | – | –
2 | Cc1cc(S(N)(=O)=O)ccc1NC(=O)C(C)Sc1nnc(Br)n1-c1c(C)ccc2ccccc12 (centres unmarked) [compound 142] | < 50 | < 50 | < 50 | > 100 | – | –
3 | CCc1ccc(-n2c(Br)nnc2SCC(=O)Nc2ccc(C(=O)NCCC#N)cc2Cl)c2ccccc12 [compound 130] | < 50 | < 50 | < 50 | < 50 | – | –
4 | COc1ccc2c(C3CC3)ccc(-n3c(Br)nnc3SCC(=O)Nc3ccc(S(=O)(=O)O)cc3Cl)c2c1 [compound 19] | – | – | 50 to 100 | > 100 | 50 to 100 | < 50
5 | CCc1ccc(-n2c(SCC(=O)Nc3ccc(C(=O)O)cc3Cl)nnc2C(F)(F)F)c2ccccc12 [compound 16] | < 50 | < 50 | 50 to 100 | > 100 | – | –
6 | Cc1cc(C(=O)O)ccc1NC(=O)CSc1nnc(C(F)F)n1-c1ccc(C)c2c1CCCC2 [compound 5] | < 50 | < 50 | > 100 | > 100 | – | –
7 | CCc1ccc(-n2c(Br)nnc2SCC(=O)Nc2ccc(C(=O)NCC(OC)OC)cc2Cl)c2ccccc12 [compound 118] | < 50 | < 50 | < 50 | < 50 | – | –
8 | NS(=O)(=O)c1ccc(NC(=O)CSc2nnc(C(F)F)n2-c2ccc3c4c(cccc24)CC3)c(Cl)c1 [compound 36] | < 50 | < 50 | < 50 | < 50 | – | –
9 | CCc1cc(C2CC2)ccc1-n1c(Br)nnc1SCC(=O)Nc1ccc(C(=O)O)cc1Cl [compound 29] | < 50 | < 50 | < 50 | > 100 | – | –
10 | Cc1cc(S(N)(=O)=O)ccc1NC(=O)CSc1nnc(Br)n1-c1c(Cl)cc(C2CCC2)c2ccccc12 [compound 92] | < 50 | < 50 | < 50 | < 50 | – | –
11 | CCc1ccc(-n2c(Br)nnc2SCC(=O)Nc2ccc(C(=O)NCC(=O)OC)cc2Cl)c2ccccc12 [compound 98] | < 50 | < 50 | < 50 | < 50 | – | –
12 | Cc1cc(C)c2ccccc2c1-n1c(SCC(=O)Nc2ccc(S(N)(=O)=O)cc2Cl)nnc1C(F)(F)F [compound 84] | – | – | < 50 | < 50 | < 50 | < 50
13 | Cc1cc(S(N)(=O)=O)ccc1NC(=O)CSc1nnc(CF)n1-c1c(C)cc(C)c2ccccc12 [compound 52] | < 50 | < 50 | < 50 | < 50 | – | –
14 | CCOC(=O)C(C)NS(=O)(=O)c1ccc(NC(=O)CSc2nnc(C(F)F)n2-c2ccc(C)c3c2CCCC3)c(Cl)c1 (centres unmarked) [compound 56] | < 50 | < 50 | < 50 | > 100 | – | –
15 | Cc1cc(C)c2ccccc2c1-n1c(SCC(=O)Nc2ccc(S(N)(=O)=O)cc2Cl)nnc1C(F)(F)F [compound 83] | < 50 | < 50 | < 50 | < 50 | – | –
16 | CCc1ccc(-n2c(Br)nnc2SCC(=O)Nc2ccc(C(=O)N3CCCCC3CO)cc2Cl)c2ccccc12 (centres unmarked) [compound 133] | < 50 | < 50 | < 50 | < 50 | – | –
17 | CCc1ccc(-n2c(Br)nnc2SCC(=O)Nc2ccc(C(=O)NCC3CCNCC3)cc2Cl)c2ccccc12 [compound 139] | < 50 | > 100 | < 50 | 50 to 100 | – | –
18 | O=C(CSc1nnc(C(F)F)n1-c1ccc(C2CC2)c2ccccc12)Nc1ccc(C(=O)O)cc1Cl [compound 14] | < 50 | < 50 | < 50 | < 50 | – | –
19 | COC(=O)[C@H](CC(C)C)NC(=O)c1ccc(NC(=O)CSc2nnc(Br)n2-c2ccc(C3CC3)c3ccccc23)c(Cl)c1 [compound 115] | < 50 | < 50 | < 50 | 50 to 100 | – | –
20 | COc1ccc2c(C)ccc(-n3c(Br)nnc3SCC(=O)Nc3ccc(S(N)(=O)=O)cc3Br)c2c1 [compound 74] | < 50 | < 50 | < 50 | < 50 | – | –
21 | COc1ccc2c(C3CC3)ccc(-n3c(Br)nnc3SCC(=O)Nc3ccc(S(=O)(=O)O)cc3Cl)c2c1 [compound 113] | 50 to 100 | < 50 | 50 to 100 | > 100 | – | –

Row | Compound | EC50 (wild type HIV-1; [4]) [nM] | IC50 [1] [nM] | EC50 [2] [nM] | EC50 [3] [nM] | EC50 (wild type HIV-1; [5]) [nM] | IC50 [1, 6] [nM]
22 | Cc1cc(C2CC2)cc(C)c1-n1c(Br)nnc1SCC(=O)Nc1ccc(C(=O)O)cc1Cl [compound 33] | < 50 | < 50 | < 50 | > 100 | – | –
23 | CCOC(=O)CNC(=O)c1ccc(NC(=O)CSc2nnc(Br)n2-c2ccc(C3CC3)c3ccccc23)c(Cl)c1 [compound 101] | < 50 | < 50 | < 50 | < 50 | – | –
24 | CCc1ccc(-n2c(CF)nnc2SCC(=O)Nc2ccc(S(N)(=O)=O)cc2C)c2ccccc12 [compound 49] | < 50 | < 50 | < 50 | > 100 | – | –
25 | CCNC(=O)c1ccc(NC(=O)CSc2nnc(Br)n2-c2ccc(CC)c3ccccc23)c(Cl)c1 [compound 131] | < 50 | < 50 | < 50 | < 50 | – | –
26 | Cc1cc(S(N)(=O)=O)ccc1NC(=O)CSc1nnc(C)n1-c1ccc(C)c2c1CCCC2 [compound 45] | < 50 | < 50 | < 50 | 50 to 100 | – | –
27 | COc1ccc2c(C3CC3)ccc(-n3c(Br)nnc3SCC(=O)Nc3ccc(S(N)(=O)=O)cc3Cl)c2c1 [compound 72] | < 50 | < 50 | < 50 | < 50 | – | –
28 | CCOC(=O)CN(C)C(=O)c1ccc(NC(=O)CSc2nnc(Br)n2-c2ccc(C3CC3)c3ccccc23)c(Cl)c1 [compound 109] | < 50 | 50 to 100 | < 50 | < 50 | – | –
29 | CCc1ccc(-n2c(Br)nnc2SCC(=O)Nc2ccc(C(=O)NCCO)cc2Cl)c2ccccc12 [compound 132] | < 50 | < 50 | < 50 | < 50 | – | –
30 | CCc1ccc(-n2c(Br)nnc2SCC(=O)Nc2ccc(C(=O)NCC(=O)O)cc2Cl)c2ccccc12 [compound 105] | < 50 | < 50 | < 50 | 50 to 100 | – | –
31 | Cc1cc(S(N)(=O)=O)ccc1NC(=O)CSc1nnc(C(F)F)n1-c1ccc(C)c2c1CCCC2 [compound 48] | < 50 | < 50 | < 50 | 50 to 100 | – | –
32 | CCc1ccc(-n2c(CF)nnc2SCC(=O)Nc2ccc(S(N)(=O)=O)cc2Cl)c2c1CCCC2 [compound 67] | < 50 | < 50 | < 50 | < 50 | – | –
33 | O=C(O)CNC(=O)c1ccc(NC(=O)CSc2nnc(Br)n2-c2ccc(C3CC3)c3ccccc23)c(Cl)c1 [compound 110] | < 50 | < 50 | > 100 | > 100 | – | –
34 | O=C(CSc1nnc(Br)n1-c1ccc(C2CC2)c2ccccc12)Nc1ccc(C(=O)O)cc1Cl [compound 11] | – | – | < 50 | < 50 | < 50 | < 50
35 | Cc1ccc(-n2c(SCC(=O)Nc3ccc(S(=O)(=O)NCCN4CCOCC4)cc3Cl)nnc2C(F)F)c2c1CCCC2 [compound 57] | < 50 | < 50 | < 50 | 50 to 100 | – | –
36 | O=C(CSc1nnc(Br)n1-c1c(Cl)cc(C2CCC2)c2ccccc12)Nc1ccc(C(=O)O)cc1Cl [compound 25] | < 50 | < 50 | < 50 | < 50 | – | –
37 | CCc1ccc(-n2c(Br)nnc2SCC(=O)Nc2ccc(C(=O)NCC(C)(C)N)cc2Cl)c2ccccc12 [compound 136] | < 50 | < 50 | < 50 | < 50 | – | –
38 | CCc1ccc(-n2c(C)nnc2SCC(=O)Nc2ccc(S(N)(=O)=O)cc2C)c2c1CCCC2 [compound 41] | < 50 | < 50 | < 50 | > 100 | – | –
39 | CCCCNC(=O)c1ccc(NC(=O)CSc2nnc(Br)n2-c2ccc(CC)c3ccccc23)c(Cl)c1 [compound 121] | < 50 | 50 to 100 | < 50 | < 50 | – | –
40 | CCc1ccc(-n2c(Br)nnc2SCC(=O)Nc2ccc(C(=O)O)cc2Cl)c2ccccc12 [compound 8] | < 50 | < 50 | < 50 | < 50 | – | –
41 | CCc1ccc(-n2c(Br)nnc2SCC(=O)Nc2ccc(C(=O)NCCN3CCCC3)cc2Cl)c2ccccc12 [compound 123] | < 50 | < 50 | < 50 | < 50 | – | –
